{
  "source": "patent US20030109584A1",
  "about": "“Stabilized pharmaceutically effective composition and pharmaceutical formulation comprising the same” (priority 2000, published 2003)",
  "assay_type_in_all_cases": "physicochemical",
  "key": {"[1]": {"test": "Stability of pravastatin (lactone and impurity formation) in buffers of pH 7 to 11", "conditions": "buffers pH 7 to 11 (phosphate, citrate, borate); 1, 5, 13 and 28 days", "description": "The third observation is that a sufficient stabilization of the active substance is already obtained at a pH of at least 7.0, but a beneficially high stability is effected at a pH of at least 8.0. We have noticed that at a pH below 8 the formation of lactone has occurred and also the amount of other impurities has increased. The presence of humidity in the air and a carbon dioxide-rich atmosphere makes the negative effect of a low pH even stronger. This is illustrated by the following experiment: Pravastatin was dissolved in different buffers with the pH in a range between 7 and 11 (F=phosphate, C=citrate, B=borate). The occurrence of pravastatin in lactone form and the formation of different degradation products (impurities) were measured after 1, 5, 13 and 28 days."}, "[2]": {"test": "pH of pravastatin sodium crystals kept in normal air, nitrogen or carbon dioxide atmosphere", "description": "Another observation was that carbon dioxide from the air may irreversibly and reversibly bind to the active substance and can cause a drop of pH. This is illustrated by the following experiment: 5 g of pravastatin sodium were dissolved in 30 ml of methanol, the pH was adjusted to 10 with 3% aqueous solution of NaOH. 400 ml of ethylacetate were added and the crystals of pravastatin sodium were formed. Crystals were filtered and dried and then put into three different atmospheres: normal air, nitrogen atmosphere and carbon dioxide atmosphere. In normal air and in the nitrogen atmosphere the pH remained the same during a period of 24 hours (normal air: pH 9.2, nitrogen: pH 9.5), but in the carbon dioxide atmosphere the pH dropped in the first two minutes from 9.2 to 6.9. After 12 minutes the pH was 6.6 and after 1 hour the pH was 6.5. After that, the pH remained constant."}, "[3]": {"test": "pH value of 1% or 5% aqueous solution of the active substance, after preparing and after 1 week on air", "description": "Within the scope of this invention the term “which will provide a pH value” means a pH value that is measured in an aqueous solution or dispersion of an active substance or of a mixture of the active substance with the buffering substance or of a stabilized active substance according to this invention or of a pharmaceutical formulation or of a stabilized pharmaceutical formulation of an active substance obtained according to this invention. The concentration of such an aqueous solution or dispersion is 1% or 5%. The measurement procedure is described in Examples 1-11."}},
  "data": [
    {"compound": "CC[C@H](C)C(=O)O[C@H]1C[C@H](O)C=C2C=C[C@H](C)[C@H](CC[C@@H](O)C[C@@H](O)CC(=O)O)[C@H]21", "note": "[Pravastatin Sodium]", "values": [
      {"measurement": "pH at which formation of lactone occurred and other impurities increased", "setting": "[1]", "value": "below 8"},
      {"measurement": "pH in carbon dioxide atmosphere after 12 minutes", "setting": "[2]; carbon dioxide atmosphere, 12 minutes", "value": 6.6},
      {"measurement": "pH in carbon dioxide atmosphere after 1 hour", "setting": "[2]; carbon dioxide atmosphere, 1 hour, constant afterwards", "value": 6.5},
      {"measurement": "pH in carbon dioxide atmosphere after two minutes", "setting": "[2]; carbon dioxide atmosphere, first two minutes", "value": 6.9},
      {"measurement": "pH at start in carbon dioxide atmosphere", "setting": "[2]; carbon dioxide atmosphere, starting value", "value": 9.2},
      {"measurement": "pH in normal air", "setting": "[2]; crystals from solution adjusted to pH 10 with NaOH, normal air, remained the same during 24 hours", "value": 9.2},
      {"measurement": "pH in nitrogen atmosphere", "setting": "[2]; nitrogen atmosphere, remained the same during 24 hours", "value": 9.5},
      {"measurement": "Value pH (1%) after 1 week on air atm", "setting": "[3]; 1% aqueous solution, after 1 week in air atmosphere", "value": 7.2},
      {"measurement": "Value pH (1%) after preparing", "setting": "[3]; 1% aqueous solution, after preparing", "value": 7.4},
      {"measurement": "Value pH (5%) after 1 week on air atm", "setting": "[3]; 5% aqueous solution, after 1 week in air atmosphere", "value": 7.6},
      {"measurement": "Value pH (5%) after preparing", "setting": "[3]; 5% aqueous solution, after preparing", "value": 7.7}
    ]}
  ]
}
